The subject of assay [1] is CDK1, CDK2, CDK4, CDK6, CDK7 and CDK9. The conditions noted are these: towards CDK1, CDK2, CDK4, CDK6, CDK7 and CDK9; cited from earlier work.
The target of assay [2] is T1, phoshatase PP2A-alpha (PPP2CA) (Homo sapiens, UniProt P67775).
T1 construct: endogenous in cells; host or cells: native cellular proteome
As to the kind of experiment: Jump-dilution LiP-MS residence-time pattern, Calyculin A on PPP2CA. The format is binding. The conditions noted are these: 0 to 60 minutes after 100-fold jump-dilution; FIG. 7. The protocol:
Native proteomes were incubated with the ligand of interested (Staurosporine or Calyculin A)—lower panel—or with the solvent (DMSO)—upper panel. The sample treated with DMSO serves as negative control, and it is used to confirm that the observed effect is derived from the interaction of the Ligand with its Targets. The proteomes were then diluted by a factor of 100 (jump-dilution method), and aliquots with a sample of the ligand-bound proteome were extracted at distinct time points after dilution. […] The samples incubated for the distinct times were then subjected to a limited proteolysis step using LiP-MS or DarkLiP-MS, and measured by mass spectrometry. […]
Calyculin A is a natural compound that acts as an potent and irreversible inhibitor of serine/threonine protein phosphatases. To show the application of the LiP-MS technology for the measurement of irreversible drug-residence times, the experimental workflow described in FIGS. 3, 4 and 5 was applied to the phosphatase inhibitor Calyculin A. Native cellular proteomes were treated with Calyculin A or DMSO (vehicle) in duplicates, diluted 100 fold and analyzed by LiP-MS. […]

A further assay deals with T2, Kynureninase (KYNU) (Homo sapiens, UniProt Q16719).
T2 construct: endogenous in cells; host or cells: native cellular proteome
T2 sequence (Q16719 1-465): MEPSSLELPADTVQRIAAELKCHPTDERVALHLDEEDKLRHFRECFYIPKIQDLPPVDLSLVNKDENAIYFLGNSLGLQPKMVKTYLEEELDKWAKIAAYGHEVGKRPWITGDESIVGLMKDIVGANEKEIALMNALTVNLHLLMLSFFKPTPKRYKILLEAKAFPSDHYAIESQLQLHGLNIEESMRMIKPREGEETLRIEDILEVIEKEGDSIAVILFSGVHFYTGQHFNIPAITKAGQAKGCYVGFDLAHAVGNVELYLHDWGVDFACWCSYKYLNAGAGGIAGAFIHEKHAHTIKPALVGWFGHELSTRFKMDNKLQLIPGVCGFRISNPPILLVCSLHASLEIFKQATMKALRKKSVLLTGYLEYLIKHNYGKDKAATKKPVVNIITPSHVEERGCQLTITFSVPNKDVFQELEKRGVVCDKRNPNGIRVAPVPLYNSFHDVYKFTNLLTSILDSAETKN
Put plainly: Jump-dilution LiP-MS, Calyculin A on non-target KYNU. The settings on record: entire length of the experiment after 100-fold jump-dilution; FIG. 8. Format: binding. The protocol: (§1) Native proteomes were incubated with the ligand of interested (Staurosporine or Calyculin A)—lower panel—or with the solvent (DMSO)—upper panel. The sample treated with DMSO serves as negative control, and it is used to confirm that the observed effect is derived from the interaction of the Ligand with its Targets. The proteomes were then diluted by a factor of 100 (jump-dilution method), and aliquots with a sample of the ligand-bound proteome were extracted at distinct time points after dilution. Due to the reduction of the concentration of the Ligand in solution (as consequence to the jump-dilution), new binding events between Ligand and Target are very unlikely, and consequently it is expected that the proportion of Ligand-bound protein Target decreases over time, as the complex Ligand-Target dissociates. The samples incubated for the distinct times were then subjected to a limited proteolysis step using LiP-MS or DarkLiP-MS, and measured by mass spectrometry. In the right intensity (I) as a function of retention time (RT is given.
(§2) For both LiP-MS and DarkLiP-MS, the limited proteolysis is performed with the unspecific protease thermolysin. After incubation for a short amount of time, the reaction is stopped by addition of EDTA.
For processing of LiP-MS experiments (1), the samples are dried after stopping the reaction. […]

Assay [3] deals with T3, Dual specificity mitogen-activated protein kinase kinase 3 (MP2K3) (Homo sapiens, UniProt P46734).
T3 construct: endogenous in cells; host or cells: native cellular proteome
T3 sequence (P46734 1-347): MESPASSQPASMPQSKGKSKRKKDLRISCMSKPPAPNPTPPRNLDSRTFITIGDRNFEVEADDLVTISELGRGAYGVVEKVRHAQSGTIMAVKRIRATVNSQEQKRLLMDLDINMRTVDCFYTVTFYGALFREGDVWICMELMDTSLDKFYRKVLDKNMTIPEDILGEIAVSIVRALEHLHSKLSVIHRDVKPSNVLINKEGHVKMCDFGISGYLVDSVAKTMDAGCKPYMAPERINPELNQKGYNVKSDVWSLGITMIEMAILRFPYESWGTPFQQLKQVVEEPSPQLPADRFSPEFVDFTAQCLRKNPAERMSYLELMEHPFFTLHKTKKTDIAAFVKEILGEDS
As to the kind of experiment: Jump-dilution LiP-MS residence time, complex MP2K3-Staurosporine. Format: binding. The conditions noted are these: for Half-life: time to 50% decrease of relative peptide abundance, 4-parameter logistic fit, 100-fold jump dilution, native cellular proteome. The protocol: as §1, §2
For processing of LiP-MS experiments (1), the samples are dried after stopping the reaction. After re-solubilization with urea, the partially-fragmented proteome is reduced and alkylated, diluted with ammonium bicarbonate, and treated with LysC and Trypsin to generate a fully fragmented peptide sample. This peptide sample is acidified with TFA and cleaned with a C18 resin before analysis by mass spectrometry.
Staurosporine is a natural compound that mimics the biological molecule ATP and acts as a promiscuous kinase inhibitor. Due to the similarities to ATP, Staurosporine has short residence times towards its protein Targets. To show the application of the LiP-MS technology for the measurement of short drug-residence times, the experimental workflow described in FIGS. 3, 4 and 5 was applied to the promiscuous kinase inhibitor Staurosporine. Native cellular proteomes were treated with Staurosporine or DMSO (vehicle) in duplicates, diluted 100 fold and analyzed by LiP-MS. The results of Example 1 are illustrated in FIG. 6. The graphs of FIG. 6 show the average abundances (y-axis) of four different peptides Peptide 1-Peptide 4 of the kinase MP2K3 measured between 0 and 60 minutes after jump-dilution (x-axis). The peptides Peptide 1-Peptide 4 are described in the database PeptideAtlas with the accessions PAp01457867, Pap00639637, PAp02016489 and PAp00503812. The graphs show a difference in peptide abundance between Staurosporine and DMSO, which is larger at earlier time points after dilution (between 0 and 30 min). The difference in abundance between Staurosporine-treated samples and DMSO decreases has time progresses.
Accordingly to equation 1, the residence-time of Staurosporine towards MP2K3 can be determined based on the half-life of the complex MP2K3-Staurosporine. Since the half-life of the complex MP2K3-Staurosporine corresponds to the interval of time that led to a reduction of peptide abundance by 50%, we fit the values of peptide abundance to a 4-parameter logistic curve. Thereby we obtained the time that corresponded to a decrease of relative peptide abundance by 50% (Table 2). Since each peptide generates a slightly different value for the half-life of the complex due experimental variability, we calculated the median of the 4 values obtained based on the four graphs of FIG. 6.

T1 sequence (P67775 whole entry): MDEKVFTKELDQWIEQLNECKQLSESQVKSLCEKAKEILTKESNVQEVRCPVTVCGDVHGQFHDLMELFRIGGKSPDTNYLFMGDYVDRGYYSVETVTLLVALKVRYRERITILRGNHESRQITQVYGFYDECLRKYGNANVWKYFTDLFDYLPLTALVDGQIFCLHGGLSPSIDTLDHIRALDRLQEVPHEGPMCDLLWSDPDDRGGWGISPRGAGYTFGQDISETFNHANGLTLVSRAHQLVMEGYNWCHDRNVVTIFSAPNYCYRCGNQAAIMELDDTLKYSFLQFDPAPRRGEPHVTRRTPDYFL

Regarding `C[C@@H](O)[C@@H](C)Oc1nc(Nc2ccc(S(=N)(=O)C3CC3)cc2)ncc1C(F)(F)F` (stereo partly drawn) [Roniclib], the IC50 values result in assay [1] is “nanomolar range”.

Consider `COC[C@@H]([C@H](O)[C@H](O)C(=O)NCC[C@H](C)c1nc(/C=C/C[C@@H]2O[C@]3(C[C@@H](O)[C@@H]2C)O[C@H]([C@H](C[C@H](O)[C@H](C)[C@H](O)[C@H](C)/C=C(C)/C(C)=C/C=C/C(C)=C\C#N)OC)[C@H](OP(=O)(O)O)C3(C)C)co1)N(C)C` [Calyculin A], for which the “Structural alteration of PPP2CA (Peptide 5 abundance vs DMSO) over time after jump-dilution” value in assay [2] was “did not disappear over time”. Also, at Kynureninase (KYNU), the “Binding / structural alteration of KYNU (Peptide 6 intensity vs DMSO)” value is on record as “did not bind to KYNU”.

As for `CN[C@@H]1C[C@H]2O[C@@](C)([C@@H]1OC)n1c3ccccc3c3c4c(c5c6ccccc6n2c5c31)C(=O)NC4` [Staurosporine], the “Structural alteration of MP2K3 (peptide abundance vs DMSO) over time after jump-dilution” value in assay [3] (0 to 60 minutes after 100-fold jump-dilution, FIG. 6) is recorded as “structural alteration disappeared over time”. In addition, the “Half-life” value in assay [3] (Peptide 1 of MP2K3) is recorded as 25 min; in assay [3] (Peptide 2 of MP2K3), 61 min; in assay [3] (Peptide 3 of MP2K3), 129 min; in assay [3] (Peptide 4 of MP2K3), 29 min. Besides, the “Median half-life” value in assay [3] (median of the 4 peptide half-lives) amounted to 45 min.

The record behind these values is patent US20260086093A1, “METHODS TO DETERMINE DRUG TARGET RESIDENCE TIME AND TO SELECT BEST DRUG-TARGET CANDIDATES” (BiognoSYS AG, priority 2022, published 2026).
